From patent US8629251B2, “Specific detection and quantification of phosphatidic acid using an Arabidopsis trigalactosyldiacylglycerol-4 (TGD4) protein” (Board of Trustees of Michigan State University, priority 2008, dated 2014)
Blank lines part the entries; values can stand above or below the molecule they belong to. Where no end group is shown, it is not given here.

Legend:
[1] = system: DsRed protein (Discosoma sp. red fluorescent protein); experiment: Liposome-association assay, DsRed control; format: binding; details: FIG. 3B
Procedure: (§1) The liposome association assay was performed as previously reported. (31). Briefly, lipids (dioleoyl-phosphatidylcholine, DOPC or dioleoyl-PA, DOPA) were incubated in TBS (50 mM Tris-HCl, pH 7; 0.1 M NaCl) at 37° C. for an hour followed by vigorous vortexing for 5 min. The liposomes were precipitated at 20,000 g and washed twice with ice-cold TBS.
(§2) Liposomes (200 μg) were mixed with purified DsRed-TGD2 fusion protein and TBS to make a final 100 μL solution. The mixture was incubated at 30° C. for 30 min and washed twice with ice-cold TBS by centrifugation at 20,000 g at 4° C. The liposome pellet mixed with sample buffer was analyzed by SDS-PAGE (28). Immuno-detection of the His-tagged protein was accomplished using the above mentioned Penta-His antibody at 1:15,000 and the anti mouse antibody at 1:75,000 dilution.
(§3) The protein band was visualized by chemiluminescent detection kit from Sigma. The autoradiography film was scanned, distinct protein bands were quantified using computer software Multi Gauge V3.0 (Fujifilm USA, Valhalla, N.Y.) and resulted data were plotted and analyzed by OriginPro8 (Origin lab corporation, Northampton, Mass.).

[2] = biological target: T1, Arabidopsis TGD2, N-terminally truncated TGD2-dTMD-His (from Gly-119) (Arabidopsis thaliana, UniProt Q9LTR2); experiment: Liposome binding assay, TGD2-dTMD-His; details: phosphatidylcholine liposomes with or without PA (6:4 wt/wt)
T1 sequence (Q9LTR2 119-381): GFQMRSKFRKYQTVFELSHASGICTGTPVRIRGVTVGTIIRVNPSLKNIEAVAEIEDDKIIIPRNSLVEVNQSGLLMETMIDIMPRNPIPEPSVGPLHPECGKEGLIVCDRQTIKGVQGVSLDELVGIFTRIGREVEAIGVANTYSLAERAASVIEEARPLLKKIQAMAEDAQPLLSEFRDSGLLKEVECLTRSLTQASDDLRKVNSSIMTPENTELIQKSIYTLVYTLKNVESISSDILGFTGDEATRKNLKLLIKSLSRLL
Procedure: The liposome binding assay was performed as previously reported. Sano et al., (1998) J. Biol. Chem. 273:4783-4789. Lipids (i.e., for example, phosphatidylcholine or a mixture of phosphatidylcholine and PA at 6:4 wt/wt) were incubated in TBS (50 mM Tris/HCl, pH 7/0.1M NaCl) at 37° C. for 1 hour followed by vigorous vortexing for 5 min. The liposomes were precipitated at 20,000×g and washed twice with ice-cold TBS.
Liposomes (200 μg) were mixed with purified TGD2 protein lacking the TMD (10 μg/ml) and TBS to make 100 μl of solution. The mixture was incubated at 30° C. for 30 min and washed twice with ice-cold TBS by centrifugation at 20,000×g at 4° C. The liposome pellet mixed with sample buffer was analyzed by SDS/PAGE. Laemmli, U. K. (1970) Nature 227, 680-685. Immunodetection of the His-tagged protein was accomplished by using the above-mentioned Penta-His antibody at 1:6,000 and the anti-mouse antibody at 1:10,000 dilutions. The BCIP/NBT Kit from Bio-Rad was used for color detection.

[3] = biological target: Arabidopsis TGD2, DsRed fusion of the 25-mer minimal domain (residues 201-225, SEQ ID NO:12), K221A (Arabidopsis thaliana, UniProt Q9LTR2, K221A); experiment: Liposome-association assay, point mutant K221A of the minimal domain; format: binding; details: PC liposomes; any of the constructs
Procedure: Some reports have identified that TGD2 PA-binding regions involve basic amino acids and/or tryptophan residues (10). […] Based on sequence similarity of TGD2 to its closely related homologs in plants and green algae, several charged and/or conserved amino acids were picked as potential interesting residues in the 25-mer minimal domain for possibly mediating interactions with PA. An alanine screen was then performed to evaluate these residues within a minimal PA binding region of TGD2 (i.e., for example, SEQ ID NO:12). Point mutations were generated in the 25-mer minimal domain and fused with DsRed to test PA binding by liposome-association assay using 100% PA liposomes.
The liposome association assay was performed as previously reported. (31). […]
(§4) Liposomes (200 μg) were mixed with purified DsRed-TGD2 fusion protein and TBS to make a final 100 μL solution. […] The liposome pellet mixed with sample buffer was analyzed by SDS-PAGE (28). […]
as §3

[4] = biological target: T2, Arabidopsis TGD2, DsRed-TGD2C WT (DR-WT) fusion protein, residues 119-381, SEQ ID NO:107 (Arabidopsis thaliana, UniProt Q9LTR2); experiment: Liposome-association assay (mixed PA/PC liposomes), DsRed-TGD2C WT; format: binding; details: PC, PA/PC or PA liposomes, FIG. 3B
T2 construct: made in house; host or cells: Escherichia coli BL21 (DE3)
T2 sequence (Q9LTR2 119-381): T1 sequence (Q9LTR2 119-381)
Procedure: FIG. 2A: Analysis by liposome-association assay. A mixture of dioleoyl-PA and dioleoyl-PC was used where the weight percent of PA was varied from 0-100% (wt/wt), maintaining the total lipid invariant at 250 μg. 1 μg protein was used. P, protein recovered in the absence of lipids.
(§5) In this assay, purified recombinant proteins were incubated with liposomes for 30 min at 30° C. before centrifugation at 20,000 g for 10 min to pellet the liposomes. Proteins bound to the liposomes were found associated with the lipid pellet, whereas non-binding proteins remained in the supernatant. In an effort to determine the optimal concentration of PA required for high specificity binding, a PA/PC liposome mixture containing varying weight fractions of PA was prepared and incubated with DsRed-TGD2CWT or DsRed alone.
as §1, §2, §3

[5] = biological target: T3, Arabidopsis TGD4, DsRED-TGD4-His, full-length TGD4 1-479 (SEQ ID NO: 132) (Arabidopsis thaliana, UniProt Q9M903); experiment: Liposome association assay, DsRED-TGD4-His; format: binding; details: 40 mol % PtdOH and 60 mol % PtdCho liposomes, FIG. 18C, D
T3 sequence (Q9M903 1-479): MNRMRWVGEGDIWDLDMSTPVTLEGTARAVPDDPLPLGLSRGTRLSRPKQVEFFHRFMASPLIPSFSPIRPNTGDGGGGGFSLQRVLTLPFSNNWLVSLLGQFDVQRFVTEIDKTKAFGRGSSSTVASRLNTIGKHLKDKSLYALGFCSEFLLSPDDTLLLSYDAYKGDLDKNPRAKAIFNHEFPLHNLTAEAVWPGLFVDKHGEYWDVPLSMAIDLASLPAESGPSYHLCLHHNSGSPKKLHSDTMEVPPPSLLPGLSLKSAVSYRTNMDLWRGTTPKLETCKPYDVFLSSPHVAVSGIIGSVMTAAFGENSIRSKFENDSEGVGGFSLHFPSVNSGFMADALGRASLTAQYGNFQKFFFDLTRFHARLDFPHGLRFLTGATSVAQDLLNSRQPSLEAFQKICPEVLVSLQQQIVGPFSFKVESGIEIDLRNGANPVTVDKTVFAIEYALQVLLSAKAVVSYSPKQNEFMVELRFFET
Procedure: Liposome Association Assay:
(§6) The liposome association assay was adapted from (Awai et al., 2006, Lu and Benning, 2009) with minor modifications. Dioleoyl-PtdCho and PtdOH with different acyl chain lengths and desaturation levels were used for making liposomes. In other liposomes 1-palmitoyl-2-(12-((7-nitro-2-1,3-benzoxadiazol-4-yl)amino)dodecanoyl)-sn-glycero-3-phosphate (NBD-PtdOH; Avanti, Alabaster, Ala.) was used. The lipids were mixed at indicated ratios to give a total lipid amount of 250 μg. The lipids were dried under a stream of nitrogen, resuspended in 0.5 ml TBS buffer with 0.2 M choline chloride and hydrated at 37° C. for 1 hour followed by vigorous vortexing for 2 minutes. The resulting multi-lamellar vesicles were centrifuged at 13,000×g for 10 minutes and then washed once with TBS buffer containing 0.2 M choline chloride. The liposomes were resuspended into 100 μl TBS buffer with 0.2 M choline chloride and incubated with 2 μg purified DsRED-TGD4-His protein and its derivatives. The protein liposome mixture was incubated on ice for 30 minutes followed by centrifugation at 13,000×g for 10 minutes and two washes with 500 μl TBS containing 0.2 M choline chloride. The resulting protein-liposome pellet was resuspended in 20 μl 2× Laemmli buffer (Laemmli, 1970) and processed by SDS-PAGE (Shapiro and Maizel, 1969).

[6] = Liposome-association assay of DsRed-TGD2 fusion proteins; format: binding; details: PA/PC or 100% PA liposomes
Procedure: as §5, §1, §4, §3

[7] = biological target: T4, DsRED-TGD4-His (Arabidopsis thaliana, UniProt Q9M903); experiment: Precipitation / stabilizer test of DsRED-TGD4-His; format: physicochemical; details: 5 μg protein with stabilizer, 4° C., 2 hours, 13,000×g pellet by SDS-PAGE
T4 construct: the DsRED protein was fused to the N-terminus of the full-length TGD4 protein; made in house; host or cells: E. coli BL21 (DE3)
T4 sequence (Q9M903 1-479): T3 sequence (Q9M903 1-479)
Procedure: FIG. 23A: 5 μg DsRED-TGD4-His was incubated with various protein stabilizers at 4° C. for 2 hours followed by centrifugation at 13,000×g for 10 minutes. The pellet was analyzed by SDS-PAGE. TBS: Tris-buffered saline, Glycerol: 20% glycerol; PEG: 20% polyethylene; Pectin: 5% pectin; ChoCl: 1 M choline chloride; Glycine: 1 M glycine; Urea: 1 M urea; BSA: 0.5 mg/ml bovine serum albumin; PBS: phosphate-buffered saline.
FIG. 23B: 5 μg DsRED-TGD4-His was treated with either 2 M sodium chloride or choline chloride as described above.
Lipid binding properties of TGD4 were investigated by producing TGD4 fused to DsRED. The DsRED protein is a red fluorescent protein of the coral Discosoma sp. (Gross et al., 2000, herein incorporated by reference).

[8] = Liposome association assay of DsRED-TGD4-His and derivatives; format: binding; details: dioleoyl-PtdOH/dioleoyl-PtdCho liposomes, 0 to 80% PtdOH by weight, FIG. 19
Procedure: as §6

[9] = Protein-lipid overlay assay of DsRED-TGD4 fusion proteins; format: binding
Procedure: The protein-lipid overlay assay was modified from (Awai et al., 2006, Lu and Benning, 2009). Phosphoinositol-4,5-bisphosphate PIP2) lipid strips were purchased from Echelon Biosciences (Salt Lake City, Utah). Lipids spotted onto membranes were purchased from Avanti Polar Lipids (Alabaster, Al.) as well as Larodan Fine Chemicals (Malmo, Sweden). Lipids (10 nmol) were suspended in 20 μl spotting buffer (250 μl chloroform, 500 μl methanol, 200 μl 50 mM HCl, 2 μl 1% (w/v) Ponseau S (Sigma, St. Louis, Mo.)) and spotted onto Amersham Hybond-C Extra membranes (GE Healthcare, Piscataway, N.J.) followed by drying for 1 hour in a fume hood. The lipid membranes were then blocked in 3% (w/v) bovine serum albumin (BSA) in TBST buffer (TBS with 0.25% (v/v) Tween 20) for 2 hours at room temperature. Purified DsRED-TGD4-His fusion proteins were added at 1 μg/ml final concentration and incubated overnight at 4° C. followed by washing 3 times in TBST. Lipid membranes were then incubated with 1:2000 diluted His antibody (Sigma) in blocking buffer for 2 hours at room temperature followed by 2 washes with TBST. The membranes were processed for immunoblotting as described below.

Arabidopsis TGD2, DsRed fusion of the 25-mer minimal domain (residues 201-225, SEQ ID NO:12), K221A, sequence (Q9LTR2 201-225 K221A): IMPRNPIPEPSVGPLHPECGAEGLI

Molecule: CCCCCCCC/C=C\CCCCCCCC(=O)OC[C@H](COP(=O)([O-])OCC[N+](C)(C)C)OC(=O)CCCCCCC/C=C\CCCCCCCC [PC, phosphatidylcholine]
binding to PC or PA [1]: does not display binding
liposome binding [2]: did not bind
PC-liposome binding [3]: No detectable PC-liposome binding
binding to PA or PC [4]: no interaction

Molecule: C[N+](C)(C)CCO.[Cl-] [Choline chloride, choline chloride]
stabilization of DsRED-TGD4-His against precipitation [7]: minimize precipitation
stabilization of DsRED-TGD4-His against precipitation ([7]; listed as choline chloride): stabilized DsRED-TGD4-His

Molecule: [Cl-].[Na+] [NaCl, sodium chloride]
stabilization of DsRED-TGD4-His against precipitation [7]: not able to stabilize DsRED-TGD4-His

Molecule: CCCCCCCCCCCCCCCC(=O)OC[C@H](COP(=O)(O)O)OC(=O)CCCCCCCCCCCNc1ccc([N+](=O)[O-])c2nonc12 [1-palmitoyl-2-(12-((7-nitro-2-1,3-benzoxadiazol-4-yl)amino)dodecanoyl)-sn-glycero-3-phosphate]
binding to PtdOH species in liposomes [5]: did not bind

B1: DsRED-His: DsRED-His protein itself, control without TGD4 (protein, UniProt Q9U6Y8 1-225, looked up)
Red fluorescent protein …: MRSSKNVIKEFMRFKVRMEGTVNGHEFEIEGEGEGRPYEGHNTVKLKVTKGGPLPFAWDILSPQFQYGSKVYVKHPADIPDYKKLSFPEGFKWERVMNFEDGGVVTVTQDSSLQDGCFIYKVKFIGVNFPSDGPVMQKKTMGWEASTERLYPRDGVLKGEIHKALKLKDGGHYLVEFKSIYMAKKPVQLPGYYYVDSKLDITSHNEDYTIVEQYERTEGRHHLFL
modifications: His-tag
notes: DsRED-His protein itself, control without TGD4
PtdOH binding affinity of TGD4 derivatives [8]: Except for DsRED-His alone, tested recombinant fusion proteins bound to PtdOH-containing liposomes
lipid binding in overlay, phospholipids ([9]; commercially available membranes, FIG. 18A): not observed to bind to any of the lipids on either membrane tested
lipid binding in overlay, plant/chloroplast lipids ([9]; lipids manually spotted onto membranes, FIG. 18B): not observed to bind to any of the lipids on either membrane tested

More lines, main results first:

binding to PtdOH species in liposomes [5]: appeared to be stronger
Molecule: CCCCCCCCCCCCCCCCCC(=O)OC[C@H](COP(=O)(O)O)OC(=O)CCCCCCCCCCCCCCCCC [distearoyl PtdOH, distearoyl phosphatidic acid]

PA binding in liposome-association assay ([6]; listed as region between residues 201 and 225 (SEQ ID NO:12)): much less overall binding
Molecule: DR-25: DsRed fused to the TGD2 minimal PA binding domain, residues 201-225 (SEQ ID NO: 12) (IMPRNPIPEPSVGPLHPECGKEGLI; also: fused to DsRed, end not given here; UniProt Q9LTR2 201-225, looked up, fragment)
PA binding in liposome-association assay ([6]; listed as 25-amino-acid segment): necessary and sufficient for PtdOH binding

binding to PtdOH species in liposomes [5]: bind
Molecule: CCCCCCCCCCCCCCCC(=O)OC[C@H](COP(=O)(O)O)OC(=O)CCCCCCCCCCCCCCC [dipalmitoyl PtdOH, dipalmitoyl phosphatidic acid]
